Assay results taken from ChEMBL document CHEMBL1201862, “PubChem BioAssay data set” (2004).
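Method: 48-hour compound exposure of cells in 96-well plates, five concentrations, linear interpolation of endpoints. GI50 marks 50% less growth.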 Active and inactive are the calls of the source. Cut-off read from the data, not from the text of the source: active = GI50 up to about 1.1 µM and inactive = higher.

Legend:
Assay in all cases: DTP human tumour cell line panel, 48 h
HCC 2998 = tested on: HCC 2998
NCI-H460 = tested on: NCI-H460
SR = tested on: SR
UACC-257 = tested on: UACC-257
PC-3 = tested on: PC-3
IGROV-1 = tested on: IGROV-1
786-0 = tested on: 786-0
MDA-N = tested on: MDA-N
SF-295 = tested on: SF-295
HT-29 = tested on: HT-29
SNB-19 = tested on: SNB-19
HOP-92 = tested on: HOP-92
SK-MEL-5 = tested on: SK-MEL-5
SK-MEL-2 = tested on: SK-MEL-2
TK-10 = tested on: TK-10
RXF 393 = tested on: RXF 393
KM12 = tested on: KM12
HL-60 = tested on: HL-60
UACC-62 = tested on: UACC-62
M14 = tested on: M14

`O=c1oc2cc(O)ccc2cc1-c1nc2ccccc2s1` was tested, and the GI50 (HCC 2998) was 27.5 µM (inactive), the GI50 (NCI-H460) was 21.2 µM (inactive) and the GI50 (SR) was 25.8 µM (inactive). For the same molecule, the GI50 (UACC-257) was 22.6 µM (inactive), the GI50 (PC-3) was 22.8 µM (inactive) and the GI50 (IGROV-1) was 35.4 µM (inactive). For the same molecule, the GI50 (786-0) was 22.8 µM (inactive), the GI50 (MDA-N) was 19.1 µM (inactive) and the GI50 (SF-295) was 54.1 µM (inactive). For the same molecule, the GI50 (HT-29) was 29 µM (inactive), the GI50 (SNB-19) was 30.8 µM (inactive) and the GI50 (HOP-92) was 27.7 µM (inactive). The GI50 (SK-MEL-5) was 11.1 µM (inactive), the GI50 (SK-MEL-2) was 21.8 µM (inactive) and the GI50 (TK-10) was 30.1 µM (inactive). For the same molecule, the GI50 (RXF 393) was 31.7 µM (inactive), the GI50 (KM12) was 42.3 µM (inactive) and the GI50 (HL-60) was 16.1 µM (inactive). For the same molecule, the GI50 (UACC-62) was 7.21 µM (inactive) and the GI50 (M14) was 24.5 µM (inactive).
`CCN(CCCl)c1cc(CN(C)C)cc(NC(=O)c2ccc(C(=O)Nc3cccc(CN(C)C)c3)cc2)c1` was tested, and the GI50 (HCC 2998) was 1.26 µM (inactive), the GI50 (NCI-H460) was 0.716 µM (active) and the GI50 (SR) was 0.275 µM (active). For the same molecule, the GI50 (UACC-257) was 1.83 µM (inactive), the GI50 (PC-3) was 0.305 µM (active) and the GI50 (IGROV-1) was 0.274 µM (active). The GI50 (786-0) was 0.383 µM (active), the GI50 (MDA-N) was 0.29 µM (active) and the GI50 (SF-295) was 1.36 µM (inactive). For the same molecule, the GI50 (HT-29) was 1.35 µM (inactive), the GI50 (SNB-19) was 0.286 µM (active) and the GI50 (HOP-92) was 0.512 µM (active). For the same molecule, the GI50 (SK-MEL-5) was 0.213 µM (active), the GI50 (SK-MEL-2) was 0.467 µM (active) and the GI50 (TK-10) was 3.73 µM (inactive). For the same molecule, the GI50 (RXF 393) was 0.247 µM (active), the GI50 (KM12) was 1.28 µM (inactive) and the GI50 (HL-60) was 0.0467 µM (active). For the same molecule, the GI50 (UACC-62) was 1.27 µM (inactive) and the GI50 (M14) was 4.27 µM (inactive).
With `O=C1CC(c2ccccc2Cl)C2(C(=O)NC(=S)NC2=O)C(c2ccccc2Cl)C1` (centres undefined) the GI50 (HCC 2998) was 27 µM (inactive), the GI50 (NCI-H460) was 20 µM (inactive) and the GI50 (SR) was 44 µM (inactive). For the same molecule, the GI50 (UACC-257) was 13.6 µM (inactive), the GI50 (PC-3) was 23.6 µM (inactive) and the GI50 (IGROV-1) was 25.9 µM (inactive). The GI50 (786-0) was 21.5 µM (inactive), the GI50 (MDA-N) was 26.8 µM (inactive) and the GI50 (SF-295) was 22.9 µM (inactive). The GI50 (HT-29) was 74 µM (inactive), the GI50 (SNB-19) was 13.2 µM (inactive) and the GI50 (HOP-92) was 0.284 µM (active). The GI50 (SK-MEL-5) was 23.9 µM (inactive), the GI50 (SK-MEL-2) was 37.1 µM (inactive) and the GI50 (TK-10) was 0.0302 µM (active). For the same molecule, the GI50 (RXF 393) was 16.9 µM (inactive), the GI50 (KM12) was 12.9 µM (inactive) and the GI50 (HL-60) was 36.5 µM (inactive). The GI50 (UACC-62) was 19.8 µM (inactive) and the GI50 (M14) was 17.1 µM (inactive).
For `CCC(=O)COc1ccc(NC(NC(=O)C(C(F)(F)F)C(F)(F)F)(C(F)(F)F)C(F)(F)F)cc1`, the GI50 (HCC 2998) was > 100 µM (inactive), the GI50 (NCI-H460) was 77.4 µM (inactive) and the GI50 (SR) was 12.2 µM (inactive). For the same molecule, the GI50 (UACC-257) was 53.7 µM (inactive), the GI50 (PC-3) was 48.1 µM (inactive) and the GI50 (IGROV-1) was 19.4 µM (inactive). For the same molecule, the GI50 (786-0) was 23.1 µM (inactive), the GI50 (MDA-N) was 28.3 µM (inactive) and the GI50 (SF-295) was 66.4 µM (inactive). For the same molecule, the GI50 (HT-29) was 22.7 µM (inactive), the GI50 (SNB-19) was 46.9 µM (inactive) and the GI50 (HOP-92) was 39.1 µM (inactive). The GI50 (SK-MEL-5) was 42.3 µM (inactive), the GI50 (SK-MEL-2) was 30.3 µM (inactive) and the GI50 (TK-10) was 37 µM (inactive). The GI50 (RXF 393) was 18.6 µM (inactive), the GI50 (KM12) was 36.2 µM (inactive) and the GI50 (HL-60) was 22.2 µM (inactive). The GI50 (M14) was 47.8 µM (inactive).
For `O=[N+]([O-])c1ccc2c(c1)/C(=N/N=C1c3ccccc3Cc3ccccc31)c1cc([N+](=O)[O-])cc([N+](=O)[O-])c1-2`, the GI50 (HCC 2998) was 5.85 µM (inactive), the GI50 (NCI-H460) was 3.14 µM (inactive) and the GI50 (SR) was 4.61 µM (inactive). The GI50 (UACC-257) was 2.08 µM (inactive), the GI50 (PC-3) was 2.76 µM (inactive) and the GI50 (IGROV-1) was 1.55 µM (inactive). For the same molecule, the GI50 (786-0) was 1.72 µM (inactive), the GI50 (MDA-N) was 3.36 µM (inactive) and the GI50 (SF-295) was 1.93 µM (inactive). For the same molecule, the GI50 (HT-29) was 1.97 µM (inactive), the GI50 (SNB-19) was 7.33 µM (inactive) and the GI50 (HOP-92) was 2.17 µM (inactive). For the same molecule, the GI50 (SK-MEL-5) was 4.42 µM (inactive), the GI50 (SK-MEL-2) was 9.18 µM (inactive) and the GI50 (TK-10) was 4.29 µM (inactive). The GI50 (RXF 393) was 2.61 µM (inactive), the GI50 (KM12) was 2.47 µM (inactive) and the GI50 (HL-60) was 2.26 µM (inactive). For the same molecule, the GI50 (UACC-62) was 2.62 µM (inactive) and the GI50 (M14) was 2.49 µM (inactive).
With `CCOP(C)(=O)C(Nc1ccc(F)cc1)c1ccc(F)cc1` (centres undefined) the GI50 (HCC 2998) was > 100 µM (inactive), the GI50 (NCI-H460) was > 100 µM (inactive) and the GI50 (SR) was > 100 µM (inactive). For the same molecule, the GI50 (UACC-257) was > 100 µM (inactive), the GI50 (PC-3) was > 100 µM (inactive) and the GI50 (IGROV-1) was > 100 µM (inactive). For the same molecule, the GI50 (786-0) was > 100 µM (inactive), the GI50 (MDA-N) was > 100 µM (inactive) and the GI50 (SF-295) was > 100 µM (inactive). For the same molecule, the GI50 (HT-29) was > 100 µM (inactive), the GI50 (SNB-19) was > 100 µM (inactive) and the GI50 (HOP-92) was > 100 µM (inactive). For the same molecule, the GI50 (SK-MEL-5) was > 100 µM (inactive), the GI50 (SK-MEL-2) was > 100 µM (inactive) and the GI50 (TK-10) was > 100 µM (inactive). The GI50 (RXF 393) was > 100 µM (inactive), the GI50 (KM12) was > 100 µM (inactive) and the GI50 (HL-60) was > 100 µM (inactive). For the same molecule, the GI50 (UACC-62) was > 100 µM (inactive) and the GI50 (M14) was > 100 µM (inactive).
